Assay results from ChEMBL document CHEMBL1201862, “PubChem BioAssay data set” (2004).
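1) Cells in 96-well plates. 2) Compound, 48 h, 5 concentrations. 3) Linear interpolation between surrounding doses. 4) Unreached endpoint = highest concentration. GI50: concentration for 50% inhibition of growth.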 Active and inactive are the calls of the source. Cut-off read from the data, not from the text of the source: active = GI50 up to about 1.1 µM and inactive = higher.

Columns and labels:
Assay in all cases: NCI anticancer screen, dose series, 48 h
786-0 = tested on: 786-0
BT-549 = tested on: BT-549
CCRF-CEM = tested on: CCRF-CEM
HCT-15 = tested on: HCT-15
HL-60 = tested on: HL-60
HT-29 = tested on: HT-29
Hs-578T = tested on: Hs-578T
K562 = tested on: K562
KM12 = tested on: KM12
MDA-N = tested on: MDA-N
Malme-3M = tested on: Malme-3M
NCI-H226 = tested on: NCI-H226
NCI-H460 = tested on: NCI-H460
NCI-H522 = tested on: NCI-H522
OVCAR-4 = tested on: OVCAR-4
SF-295 = tested on: SF-295
SK-OV-3 = tested on: SK-OV-3
SR = tested on: SR
SW-620 = tested on: SW-620
U-251 = tested on: U-251

| Compound | GI50 (786-0) | GI50 (BT-549) | GI50 (CCRF-CEM) | GI50 (HCT-15) [µM] | GI50 (HL-60) | GI50 (HT-29) | GI50 (Hs-578T) | GI50 (K562) | GI50 (KM12) | GI50 (MDA-N) | GI50 (Malme-3M) | GI50 (NCI-H226) | GI50 (NCI-H460) | GI50 (NCI-H522) | GI50 (OVCAR-4) | GI50 (SF-295) | GI50 (SK-OV-3) | GI50 (SR) | GI50 (SW-620) | GI50 (U-251) |
| --- | --- | --- | --- | --- | --- | --- | --- | --- | --- | --- | --- | --- | --- | --- | --- | --- | --- | --- | --- | --- |
| Cc1ccccc1OC(C)C(=O)NN1C(=O)CC(=O)N(c2ccc(Cl)cc2)C1=S (stereo not given) | 34 µM (inactive) | 37.2 µM (inactive) | 19.3 µM (inactive) | 30.1 | 13.4 µM (inactive) | 39.5 µM (inactive) | 63.2 µM (inactive) | 38.6 µM (inactive) | 36.3 µM (inactive) | 32.1 µM (inactive) | 48.2 µM (inactive) | 31.5 µM (inactive) | 31 µM (inactive) | 32.3 µM (inactive) | 38.5 µM (inactive) | 36.8 µM (inactive) | 48.2 µM (inactive) | 26 µM (inactive) | 36.2 µM (inactive) | 34.1 µM (inactive) |
| COc1cc2c(cc1O)CCN(C)[C@H]2Cc1ccc(Oc2c(O)c(OC)cc3c2C[C@H]2c4c(c(OC)c(OC)c(OC)c4-3)CCN2C)cc1 [THALIFABERIDINE] | 4.53 µM (inactive) | 5.75 µM (inactive) | 2.92 µM (inactive) | 4.43 | 4.24 µM (inactive) | 2.85 µM (inactive) | 5.3 µM (inactive) | 0.966 µM (active) | 4.11 µM (inactive) | 4.94 µM (inactive) | 7.85 µM (inactive) | 7.46 µM (inactive) | 2.09 µM (inactive) | 5.55 µM (inactive) | 2.3 µM (inactive) | 5.79 µM (inactive) | 5.42 µM (inactive) | 1.61 µM (inactive) | 4.71 µM (inactive) | 4.38 µM (inactive) |
| COc1ccc(N2C(=O)/C(=C\c3cc(OC)c(OC)c(OC)c3)SC2c2ccccc2)cc1 (stereo not given) | > 100 µM (inactive) | 26.1 µM (inactive) | 21.2 µM (inactive) | 58.2 | 10.4 µM (inactive) | > 100 µM (inactive) | 50.9 µM (inactive) | 38.3 µM (inactive) | 51.6 µM (inactive) | 25.4 µM (inactive) | 54.6 µM (inactive) | > 100 µM (inactive) | 67 µM (inactive) | 16.6 µM (inactive) | 79.8 µM (inactive) | 50.5 µM (inactive) | 81.7 µM (inactive) | 28.4 µM (inactive) | > 100 µM (inactive) | 56.5 µM (inactive) |
| O=C1OC(c2ccc([N+](=O)[O-])cc2)=N/C1=C\c1ccc(Cl)cc1 | > 100 µM (inactive) | > 100 µM (inactive) | > 100 µM (inactive) | > 100 | > 100 µM (inactive) | > 100 µM (inactive) | > 100 µM (inactive) | > 100 µM (inactive) | > 100 µM (inactive) | > 100 µM (inactive) | > 100 µM (inactive) | > 100 µM (inactive) | > 100 µM (inactive) | > 100 µM (inactive) | > 100 µM (inactive) | > 100 µM (inactive) | > 100 µM (inactive) | > 100 µM (inactive) | > 100 µM (inactive) | > 100 µM (inactive) |
| COc1ccc(C(=O)/C=C2\C(=O)Nc3ccc(Br)cc32)cc1 | 1.97 µM (inactive) | 5.75 µM (inactive) | 1.4 µM (inactive) | 2.13 | 1.99 µM (inactive) | 1.82 µM (inactive) | 13.8 µM (inactive) | 5.07 µM (inactive) | 3.21 µM (inactive) | 5.81 µM (inactive) | 8.22 µM (inactive) | 11.1 µM (inactive) | 10 µM (inactive) | 4.03 µM (inactive) | 16.5 µM (inactive) | 16.2 µM (inactive) | 15.6 µM (inactive) | 2.96 µM (inactive) | 2.32 µM (inactive) | 14.2 µM (inactive) |
| C/C(=C/CC[C@]1(CO)CC[C@]2(C)[C@H](CC[C@@H]3[C@@]4(C)CC[C@H](OC5OC(CO)C(O)C(O)C5OC5OC(CO)C(O)C(O)C5O)C(C)(C)[C@@H]4CC[C@]32C)[C@H]1O)CO (stereo not given in full) | > 100 µM (inactive) | > 100 µM (inactive) | > 100 µM (inactive) | > 100 | > 100 µM (inactive) | > 100 µM (inactive) | > 100 µM (inactive) | > 100 µM (inactive) | > 100 µM (inactive) | > 100 µM (inactive) | > 100 µM (inactive) | > 100 µM (inactive) | > 100 µM (inactive) | > 100 µM (inactive) | > 100 µM (inactive) | > 100 µM (inactive) | > 100 µM (inactive) | > 100 µM (inactive) | > 100 µM (inactive) | > 100 µM (inactive) |
| CC(C)(Br)C(=O)N1CCN(C(c2ccccc2)c2ccccc2)CC1 | > 100 µM (inactive) | > 100 µM (inactive) | 49.2 µM (inactive) | 64.9 | 21.5 µM (inactive) | 39.5 µM (inactive) | 22.6 µM (inactive) | > 100 µM (inactive) | 16.2 µM (inactive) | > 100 µM (inactive) | > 100 µM (inactive) | 95.1 µM (inactive) | > 100 µM (inactive) | 85.7 µM (inactive) | > 100 µM (inactive) | > 100 µM (inactive) | > 100 µM (inactive) | 66.2 µM (inactive) | > 100 µM (inactive) | > 100 µM (inactive) |
| CCOC(=O)c1c(C)c(C)n2c1NC(=O)C2 | > 49.7 µM (inactive) | 50.9 µM (inactive) | > 100 µM (inactive) | > 61.1 | > 100 µM (inactive) | > 74.3 µM (inactive) | 20.3 µM (inactive) | > 100 µM (inactive) | > 100 µM (inactive) | > 100 µM (inactive) | > 50.7 µM (inactive) | > 100 µM (inactive) | > 53.1 µM (inactive) | > 43.7 µM (inactive) | > 100 µM (inactive) | > 80 µM (inactive) | > 100 µM (inactive) | 37.2 µM (inactive) | > 54 µM (inactive) | > 48.1 µM (inactive) |
| CCCCS(=O)(=O)CCC(N)C(=O)O (stereo not given) | > 100 µM (inactive) | > 100 µM (inactive) | > 100 µM (inactive) | > 100 | > 100 µM (inactive) | > 100 µM (inactive) | > 100 µM (inactive) | > 100 µM (inactive) | > 100 µM (inactive) | > 100 µM (inactive) | > 100 µM (inactive) | > 100 µM (inactive) | > 100 µM (inactive) | > 100 µM (inactive) | > 100 µM (inactive) | > 100 µM (inactive) | > 100 µM (inactive) | > 100 µM (inactive) | > 100 µM (inactive) | > 100 µM (inactive) |
